Test results: publication PMC6544242, “Development and validation of a multiplex UHPLC-MS/MS method for the determination of the investigational antibiotic against multi-resistant tuberculosis macozinone (PBTZ169) and five active metabolites in human plasma” (PLoS ONE, 2019)
Where two headings read alike, the source gives them in different places.

How the values were obtained:
[1] = test system: Mycobacterium tuberculosis; conditions: not measured in this paper, cited from earlier work
[2] = Long-term stability in plasma; format: in vitro ADME, human; conditions: -20°C and -80°C
Method: Long-term stability in plasma. Stability in citrated plasma stored at -20°C and -80°C in suitable tubes for long-term storage (1, 3, 6 and 12 months) was evaluated at 1, 10, 100 and 1000 ng/mL. Deviations of the mean concentrations (n = 3) of samples measured at each time points from the nominal concentrations were calculated.

[3] = format: physicochemical; conditions: DMSO:MeOH (1:1 v/v), -20°C
Method: Each compound was independently weighed and the corresponding powder dissolved in the required volume of DMSO to give a 1 mg/mL stock solution of the compound that was sonicated for 5 minutes. The stock solution used for PBTZ169 was corrected for salt form of the analyte by applying the weighing factor (0.926). Due to the high purity of the PBTZ169 and the five metabolites, no additional correcting factors were applied for preparing compounds stock solutions. Stock solutions were prepared in 5 mL PP tubes and stored at -20°C. The stability of these solutions was verified over a period of 6 months (mean bias < 8%) and of 9 months (mean bias < 9%)
PBTZ169 and metabolites mixture solutions. Two distinct working solutions (WS) including PBTZ169 together with its five active metabolites were prepared: one for calibration standards and one for validation standards/quality control (QC) samples. Working solutions including all the analytes at 100 μg/mL were obtained by adding the required volumes of compounds stock solutions (50 μL) to 200 μL of a DMSO/MeOH (1:1 v/v) mixture in safe-lock 1.5 mL PP tubes. Spiking solutions for calibration, validation standards and QCs at the appropriate concentrations were prepared by applying sequential dilutions in DMSO/MeOH (1:1 v/v) mixture starting from the dedicated WS in safe-lock 1.5 mL PP tubes and thoroughly mixed. […]

[4] = human, 6 h
[5] = human
[6] = Phase Ia clinical pharmacokinetic trial, plasma levels in healthy volunteers; conditions: human
Method: The phase 1a clinical study assessing the safety and pharmacokinetics of PBTZ169 in healthy volunteers (NCT03423030), was performed at the Service of Clinical Pharmacology of the Lausanne University Hospital and was approved on 06.09.2017 (2017–01241) by the Ethics Committee of the Canton of Vaud (CER-VD) and on 17.11.2017 (2017DR1171) by Swissmedic. All volunteers gave their written informed consent.
The concentration measured in this plasma sample is 464 ng/mL, 147 ng/mL, 13 ng/mL, 12 ng/mL and 2 ng/mL for PBTZ169, Met 3-OH, Met 3-oxo, Met amino and Met 1-OH, respectively. […] Of note, measured plasma levels were multiplied by the factor 1.1 accounting for the blood 10:1 dilution due to citrate solution.

[7] = processed extract sample, 24h

SMILES: Nc1cc(C(F)(F)F)cc2c(=O)nc(N3CCN(CC4CCCCC4)CC3)sc12 [Met amino]
- anti-TB activity in vitro (active / inactive) ([1]; listed as amino metabolite): devoid of anti-TB activity
- anti-TB activity in vitro (active / inactive) [1]: inactive
- time spiked plasma samples stability has been verified [2]: 1 month
- time working solutions are stable [3]: ≥ 3 months

SMILES: O=C(C1CCCCC1)N1CCN(c2nc(=O)c3cc(C(F)(F)F)cc([N+](=O)[O-])c3s2)CC1 [Met oxo]
- % from freshly processed samples (n=2) ([4]; 0.5 ng/mL): -11%
- % from freshly processed samples (n=2) ([4]; 1 ng/mL): -12%
- % from freshly prepared samples ([4]; 2 ng/mL): -6%
- % from freshly processed samples (n=2) ([4]; 2 ng/mL): -6%
- % from freshly processed samples (n=2) ([4]; 50 ng/mL): -10%
- % from freshly prepared samples ([4]; 150 ng/mL): -8%
- % from freshly processed samples (n=2) ([4]; 500 ng/mL): -8%
- % from freshly processed samples (n=2) ([4]; 1000 ng/mL): -3%
- % from freshly prepared samples ([4]; 1500 ng/mL): -5%
- % from freshly processed samples (n=2) ([4]; 2000 ng/mL): -3%
- % from t0 ([5]; 1 h, 10 ng/mL): 1%
- % from t0 ([5]; 1 h, 20 ng/mL): 1%
- % from t0 ([5]; 1 h, 50 ng/mL): -1%
- % from t0 ([5]; 1 h, 100 ng/mL): -1%
- % from t0 ([5]; 1 h, 200 ng/mL): 0%
- % from t0 ([5]; 1 h, 500 ng/mL): -5%
- % from t0 ([5]; 2 h, 10 ng/mL): -3%
- % from t0 ([5]; 2 h, 20 ng/mL): -4%
- % from t0 ([5]; 2 h, 50 ng/mL): -8%
- % from t0 ([5]; 2 h, 100 ng/mL): -3%
- % from t0 ([5]; 2 h, 200 ng/mL): 1%
- % from t0 ([5]; 2 h, 500 ng/mL): -5%
- % from t0 ([5]; 4 h, 10 ng/mL): -1%
- % from t0 ([5]; 4 h, 20 ng/mL): 0%
- % from t0 ([5]; 4 h, 50 ng/mL): -6%
- % from t0 ([5]; 4 h, 100 ng/mL): -4%
- % from t0 ([5]; 4 h, 200 ng/mL): 1%
- % from t0 ([5]; 4 h, 500 ng/mL): -8%
- detection in vivo in plasma [6]: not detected
- % from t0 ([7]; 4°C, level H (QC 1500 ng/mL)): 4%
- % from t0 ([7]; 4°C, level L (QC 2 ng/mL)): -3%
- % from t0 ([7]; 4°C, level M (QC 150 ng/mL)): 5%
- % from t0 ([7]; RT, level H (QC 1500 ng/mL)): 25%
- % from t0 ([7]; RT, level L (QC 2 ng/mL)): 6%
- % from t0 ([7]; RT, level M (QC 150 ng/mL)): 29%
- anti-TB activity in vitro (active / inactive) [1]: active
